Laboratory results: patent US7220576B2, “Methods and compositions for protein expression and purification” (Lifesensors, Inc., priority 2002, dated 2007)
“And” between values parts separate entries of the source, which are not always exact repeats. Identical values can stand only once. “Also recorded” adds a separate entry of the source. Values belong to the compound of their own block, whether it stands above or below them. Non-standard residues stand in square brackets, D forms with d. Residues, ends and D or L forms follow the SMILES beside them. *: point of attachment. Sta = CC(C)C[C@H](N)[C@@H](O)CC(=O)O; Isovaleryl = CC(C)CC(=O)*

Tests used:
[1] = target: T1, Ulp1 Hydrolase (Saccharomyces cerevisiae, UniProt Q02724); assay: In vitro Ulp1 cleavage of His6SUMO-GFP under various additives/conditions; format: biochemical, yeast; conditions: for Ulp1 activity remaining: 0.5 M Gdm HCl, hydrochloride
T1 construct: C-terminal His-tagged SUMO hydrolase/protease Ulp (403–621)p (21) (27) was expressed from pET24d; His tag (C); made in house; host or cells: E. coli Rosetta (DE3) pLysS, vector pET24d
T1 sequence (Q02724 403-621): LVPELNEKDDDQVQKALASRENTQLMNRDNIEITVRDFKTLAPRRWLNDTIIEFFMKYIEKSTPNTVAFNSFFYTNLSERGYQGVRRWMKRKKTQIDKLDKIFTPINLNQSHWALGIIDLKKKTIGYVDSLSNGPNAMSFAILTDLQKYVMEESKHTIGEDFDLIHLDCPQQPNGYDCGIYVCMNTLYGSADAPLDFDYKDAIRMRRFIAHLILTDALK
Protocol: Ni-NTA purified His6SUMO-GFP was incubated with Ulp1 under the indicated conditions for one hour at room temperature unless indicated otherwise. Low molecular weight markers (LMW) are also provided.
Ni-NTA purified His6SUMO-GFP was incubated with Ulp1 and 10 mM of various protease inhibitors for 1 hour at room temperature. Lane markers: Norm is addition of Ulp1 and N-ethymaleimide (NEM) to the substrate at the same time, Pre is the incubation of Ulp1 with NEM prior to the addition of substrate, +Ve is the absence of any inhibitor, −Ve is in the absence of Ulp1, lane 1 is with E-64, lane 2 is with EDTA, lane 3 is with leupeptin, lane 4 is with NEM, lane 5 is with pepstatin, lane 6 is with TLCK. Low molecular weight markers (LMW) are also provided.
The effects of various additives/conditions and temperature upon the in vitro cleavage reaction were determined as follows: His6smt3MeGFP was expressed from pET24d in Rosetta (DE3) pLysS (Novagen). The recombinant protein was purified as before using Ni-NTA agarose (Qiagen) and then buffer exchanged into 20 mM Tris-HCl pH 8.0, 150 mM NaCl and 5 mM β-mercaptoethanol using a PD-10 column (AP Biotech). Cleavage reactions were performed with 100 ug of the purified protein, 0.5 ul of enzyme, the appropriate amount of a stock solution of additive to generate the final concentrations listed in Table 4, plus the exchange buffer up to a final volume of 200 ul. Reactions were incubated for 1 hour at 37° C. except for those at 4° C. were incubated for 3 hours. […] Generally, His tagged proteins are purified on nickel columns and eluted with imidazole.

[2] = target: T2, SUMO hydrolase Ulp1 (Saccharomyces cerevisiae, UniProt Q02724); assay: In vitro cleavage of purified SUMO fusion proteins by SUMO hydrolase Ulp1; format: biochemical, yeast
T2 construct: C-terminal His-tagged SUMO hydrolase/protease Ulp (403–621)p (21) (27) was expressed from pET24d; His tag (C); made in house; host or cells: E. coli Rosetta (DE3) pLysS, vector pET24d
T2 sequence (Q02724 403-621): T1 sequence (Q02724 403-621)

[3] = tested on: E. coli; assay: GFP fluorescence in soluble fractions of E. coli; format: cell-based; conditions: 37° C., approx. 0.1 mg soluble protein, Ex 485 nm/Em 510 nm
Protocol: GFP fluorescence was measured in soluble fractions (approx. 0.1 mg of soluble protein in a final volume of 40 μl) using Fluoroscan Accent FL fluorometer (LabSystems) with Excitation 485 nm/Emission 510 nm filter set with the exposure set to 40 sec. The data are presented in Arbitrary Units (AU).
The design and construction of all the UBL E. coli expression vectors has been described above. The DNA sequences, accession numbers of the UBL-GFP fusion proteins, and translation frames are shown FIGS. 25–32. […] Un-fused GFP is generally poorly expressed in E. coli. […] Induced cells were broken by sonication and soluble proteins were analyzed on SDS-polyacrylamide gels. […] To determine if the fusion proteins were folded correctly, we determined the fluorescence properties of proteins in the soluble fraction.

[4] = tested on: E. coli; assay: Soluble versus insoluble fraction of fusion proteins expressed in E. coli; format: cell-based
Protocol: E. coli were harvested by mild centrifugation and washed once with PBS buffer. Cells were resuspended in 4 ml of PBS and ruptured by several pulses of sonication. Unbroken cells were removed by mild centrifugation (5 min at 1500×g) and supernatants were sonicated again to ensure complete cell lysis. An aliquot (5 μl) was mixed with 2% SDS to ensure that no viscosity is detected owing to lysis of unbroken cells. After ensuring that no unbroken cells remained in the lysate, insoluble material consisting of cell walls, inclusion bodies and membrane fragments was sedimented by centrifugation (18,000×g for 10 min). The supernatant was considered “Soluble fraction”.
The pellets were washed from any remaining soluble proteins, lipids and peptidoglycan as follows. Pellets were resuspended in 600 μl of PBS and to the suspensions 600 μl of solution containing 3 M urea and 1% Tri ton X100 was added. The suspension was briefly vortexed and insoluble material was collected by centrifugation as above. […]
Human nuclear receptor proteins, such as steroid receptors, contain ligand-binding domains. […] The ligand-binding domain of LXR was expressed as SUMO fusion in Rosetta plysS cell at 20° C. or 37° C. and the pattern of soluble and insoluble protein was analyzed. […] The original induced culture (I), supernatant from lysed cells (S) and resuspended pellet (P) were analyzed on 12% SDS-PAGE. […]

[5] = protease inhibitors, 10 mM per FIG. 17 legend

Effect of protease inhibitor on Ulp1 hydrolase activity [1, 5]: Cysteine protease inhibitor; no affect
Compound: CC(C)C[C@H](NC(=O)[C@H]1O[C@@H]1C(=O)O)C(=O)NCCCCN=C(N)N [E-64]

Compound: O=C(O)CN(CCN(CC(=O)O)CC(=O)O)CC(=O)O [EDTA]
Effect of protease inhibitor on Ulp1 hydrolase activity [1, 5]: no effect; also recorded: Metalloprotease inhibitor; no affect

Ulp1 activity remaining ([1]; listed as guanadinium hydrochloride): 50%
Effect on Ulp1 hydrolase activity ([1]; 1 M Gdm HCl): inactive in 1 M concentrations
Compound: Cl.N=C(N)N [Gdm HCl, guanadinium hydrochloride]
Ulp1 activity remaining [1]: Ulp1 shows 50% activity in 0.5 M but is completely

Effect on Ulp1 hydrolase activity ([1]; imidazole 0 to 300 mM, listed as imidazole): remarkably active
Compound: c1c[nH]cn1 [Imidazole]
Effect on Ulp1 hydrolase activity ([1]; imidazole 0 to 300 mM): Ulp1 shows similar activity in the range of

Compound: CC(=O)N[C@@H](CC(C)C)C(=O)N[C@@H](CC(C)C)C(=O)N[C@H](C=O)CCCNC(=N)N [Leupeptin]
Effect of protease inhibitor on Ulp1 hydrolase activity [1, 5]: no effect; also recorded: like specificity; no affect

Effect of protease inhibitor on Ulp1 hydrolase activity ([1]; enzyme preincubated with inhibitor before addition of substrate, listed as N-ethymaleimide): active
Compound: CCN1C(=O)C=CC1=O [N-ethylmaleimide]

Compound: O=S(=O)(F)Cc1ccccc1 [PMSF]
Effect of protease inhibitor on Ulp1 hydrolase activity [1, 5]: no effect; also recorded: Serine protease inhibitor; no affect

Compound: CC(C)CC(=O)N[C@H](C(=O)N[C@H](C(=O)N[C@@H](CC(C)C)[C@@H](O)CC(=O)N[C@@H](C)C(=O)N[C@@H](CC(C)C)[C@@H](O)CC(=O)O)C(C)C)C(C)C [Pepstatin] (Isovaleryl-VV[Sta]A[Sta]-OH)
Effect of protease inhibitor on Ulp1 hydrolase activity [1, 5]: no effect; also recorded: Aspartate protease inhibitor; no affect

Compound: CCCCCCCCCCCCOS(=O)(=O)[O-].[Na+] [SDS]
Effect on Ulp1 hydrolase activity ([1]; 0.01% SDS): highly active and 0.01% SDS blocks activity

Compound: Cc1ccc(S(=O)(=O)N[C@@H](CCCCN)C(=O)CCl)cc1.Cl [TLCK-HCl]
Effect of protease inhibitor on Ulp1 hydrolase activity [1, 5]: chymotrypsin-like specificity; no affect
Effect of protease inhibitor on Ulp1 hydrolase activity ([1]; protease inhibitors, 10 mM per FIG. 17 legend, listed as TLCK): no effect

Compound: NC(N)=O [Urea]
Effect on Ulp1 hydrolase activity ([1]; urea up to and including 2 M, listed as urea): did not effect the activity; also recorded: does not inhibit the hydrolase

Compound: SUMO-GFP: SUMO fused to N-terminus of GFP (SEQ ID NO: 5)
In vitro cleavage by Ulp1 / SUMO hydrolase ([2]; purified fusion protein from E. coli): completely digested
GFP fluorescence of soluble fraction (correct folding) [3]: able to fluoresce
Solubility of UBL-GFP fusion (soluble panel of stained gel) ([4]; 26° C. overnight, FIG. 4B): able to solubilize fused GFP
Solubility of UBL-GFP fusion (soluble panel of stained gel) ([4]; 37° C., FIG. 4A): able to solublize the GFP

Share of protein cleaved by SUMO hydrolase ([2]; 20 minutes, room temperature): 100%
Compound: SUMO-β-galactosidase: SUMO fusion of E. coli β-galactosidase, a 110 KDa protein (SEQ ID NO: 31)

Effect on Ulp1 hydrolase activity ([1]; up to 1% triton X 100): highly active
Compound: Triton-X
